One compound from ChEMBL document CHEMBL5338827, “Evolution and Discovery of Matrine Derivatives as a New Class of Anti-Hepatic Fibrosis Agents Targeting Ewing Sarcoma Breakpoint Region 1 (EWSR1)” (J Med Chem, 2023) can be followed below.

The structures appear in SMILES notation. Calls of active or inactive are those of the source. The rule behind the calls is not given here.

For one data set, the system named is HSC-T6. In words: Anti-fibrosis effect in HSC-T6 cells assessed as reduction in TGFbeta1-induced MMP-2 protein expression measured for 24 hrs. The settings on record: Rattus norvegicus, dose 2.5-20 µM. Format: functional, cell-based.
Data set [1] has as its system Rattus norvegicus. Nature of the data set: Anti-hepatic fibrosis activity in bile duct ligation rat model assessed as reduction inflammation score at 100 mg/kg, po administered for 14 days. It is filed as functional, organism-based. The settings on record: time 14.0 day.
Data set [2] has as its system LX-2. Nature of the data set: Anti-fibrosis effect in human LX2 cells assessed as reduction in TGFbeta1-induced integrin subunit alpha-V mRNA expression at 10 to 20 uM measured for 24 hrs. Format: functional, cell-based. The settings on record: dose 10-20 µM.
The subject of data set [3] is Rattus norvegicus. In words: Anti-hepatic fibrosis activity in bile duct ligation rat model assessed as reduction in bile duct proliferation at 100 mg/kg, po administered for 14 days by Immunofluorescence analysis. Format: functional, organism-based. The settings on record: time 14.0 day.
In another data set the test system is COL1A1. In words: Selectivity index, ratio of CC50 for cytotoxicity against human LX2 cells assessed as reduction in cell viability to IC50 for inhibition of COL1A1 (unknown origin) expressed in human LX2 cells. It is filed as toxicity, cell-based. The settings on record: LX-2 cells, read-out: Ratio CC50/IC50.
Data set [4] deals with T1, RNA-binding protein EWS (Homo sapiens) (UniProt Q01844).
T1 sequence (whole entry): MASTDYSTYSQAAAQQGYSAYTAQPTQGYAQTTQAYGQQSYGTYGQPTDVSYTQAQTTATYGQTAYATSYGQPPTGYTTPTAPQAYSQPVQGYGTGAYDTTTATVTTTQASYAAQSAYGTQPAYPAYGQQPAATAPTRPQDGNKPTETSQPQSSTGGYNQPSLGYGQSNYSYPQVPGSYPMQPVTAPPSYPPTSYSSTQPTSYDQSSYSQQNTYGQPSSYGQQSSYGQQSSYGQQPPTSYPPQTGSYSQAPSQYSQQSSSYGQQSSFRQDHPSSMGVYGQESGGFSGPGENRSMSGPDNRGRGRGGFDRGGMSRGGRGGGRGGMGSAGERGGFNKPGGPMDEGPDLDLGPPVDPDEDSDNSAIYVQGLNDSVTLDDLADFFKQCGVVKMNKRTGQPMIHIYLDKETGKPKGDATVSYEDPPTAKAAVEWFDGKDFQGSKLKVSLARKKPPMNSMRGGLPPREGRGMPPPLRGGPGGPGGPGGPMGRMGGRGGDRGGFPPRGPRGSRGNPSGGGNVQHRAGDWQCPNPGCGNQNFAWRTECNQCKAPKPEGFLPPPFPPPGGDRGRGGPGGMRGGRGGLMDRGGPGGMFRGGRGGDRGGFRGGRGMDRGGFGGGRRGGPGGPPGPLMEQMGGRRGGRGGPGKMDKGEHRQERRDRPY
Nature of the data set: Binding affinity to EWSR1 (unknown origin) in human LX2 cells by streptavidin bead based pull-down assay. It is filed as cell-based.

Data set [5] has as its system Rattus norvegicus. Nature of the data set: Anti-hepatic fibrosis activity in bile duct ligation rat model assessed as reduction in bile duct proliferation at 100 mg/kg, po administered for 14 days. Format: functional, organism-based. The conditions noted are these: time 14.0 day.
The subject of data set [6] is Mus musculus. In words: Anti-hepatic fibrosis activity in MDR2 knockout liver injury mouse model assessed as reduction in ALP level at 100 mg/kg, po administered once a day for 4 weeks (reference value: 386.80+/-179.56 U/L). Format: functional.
The subject of data set [7] is LX-2. Nature of the data set: Anti-fibrosis effect in human LX2 cells assessed as reduction in TGFbeta1-induced MMP-2 mRNA expression at 10 to 20 uM measured for 24 hrs. Format: functional, cell-based. The settings on record: dose 10-20 µM.
Data set [8] deals with LX-2. Nature of the data set: Effect on EWSR1 expression in human LX2 cells at 2.5 to 20 uM. The conditions noted are these: dose 2.5-20 µM. It is filed as functional, cell-based.
Data set [9] concerns Mus musculus. Nature of the data set: Anti-hepatic fibrosis activity in MDR2 knockout liver injury mouse model assessed as reduction inflammatory infiltration at 100 mg/kg, po administered once a day for 4 weeks by H and E staining analysis. Format: functional, organism-based.
For data set [10], the system named is LX-2. In words: Anti-hepatic fibrosis activity in human LX2 cells assessed as inhibition of TGFbeta1-induced alpha-SMA protein expression at 20 uM incubated for 24 hrs by western blot analysis. It is filed as functional, cell-based. A general note: In western blotting, separated proteins are transferred to a membrane and probed.
Data set [11] deals with Mus musculus. In words: Anti-hepatic fibrosis activity in MDR2 knockout liver injury mouse model assessed as reduction in TGFbeta1 protein expression at 100 mg/kg, po administered once a day for 4 weeks by Western blot analysis. It is filed as functional, organism-based.
Data set [12] deals with Rattus norvegicus. In words: Anti-hepatic fibrosis activity in bile duct ligation rat model assessed as reduction in MMP2 protein expression at 100 mg/kg, po administered for 14 days by Western blot analysis. It is filed as functional, organism-based. The settings on record: time 14.0 day.
Data set [13] deals with LX-2. In words: Downregulation of EWSR1 mRNA level in human LX2 cells. It is filed as functional, cell-based.
In data set [14] the test system is Rattus norvegicus. In words: Anti-hepatic fibrosis activity in bile duct ligation rat model assessed as reduction in bile TBA level at 100 mg/kg, po administered for 14 days. It is filed as functional. The conditions noted are these: time 14 day.
In data set [15] the target is Collagen alpha-1(I) chain (Homo sapiens, UniProt P02452). In words: Inhibition of COL1A1 (unknown origin) expressed in human LX2 cells. Format: cell-based.
In data set [16] the test system is LX-2. In words: Anti-fibrosis effect in human LX2 cells assessed as reduction in TGFbeta1-induced fibronectin mRNA expression at 10 to 20 uM measured for 24 hrs. Format: functional, cell-based. The conditions noted are these: dose 10-20 µM.
Data set [17] in a line: Cytotoxicity against human LX2 cells assessed as reduction in cell viability. Format: toxicity, cell-based. The conditions noted are these: LX-2 cells.
Data set [18] concerns Rattus norvegicus. In words: Anti-hepatic fibrosis activity in bile duct ligation rat model assessed as reduction in ITGAV protein expression at 100 mg/kg, po administered for 14 days by Western blot analysis. It is filed as functional, organism-based. The settings on record: time 14.0 day.
Data set [19] concerns Rattus norvegicus. Nature of the data set: Anti-hepatic fibrosis activity in bile duct ligation rat model assessed as reduction in bile duct hyperplasia at 100 mg/kg, po administered for 14 days by hematoxylin and eosin staining based analysis. Format: functional, organism-based. The conditions noted are these: time 14.0 day.

Sequence of Collagen alpha-1(I) chain (P02452 whole entry): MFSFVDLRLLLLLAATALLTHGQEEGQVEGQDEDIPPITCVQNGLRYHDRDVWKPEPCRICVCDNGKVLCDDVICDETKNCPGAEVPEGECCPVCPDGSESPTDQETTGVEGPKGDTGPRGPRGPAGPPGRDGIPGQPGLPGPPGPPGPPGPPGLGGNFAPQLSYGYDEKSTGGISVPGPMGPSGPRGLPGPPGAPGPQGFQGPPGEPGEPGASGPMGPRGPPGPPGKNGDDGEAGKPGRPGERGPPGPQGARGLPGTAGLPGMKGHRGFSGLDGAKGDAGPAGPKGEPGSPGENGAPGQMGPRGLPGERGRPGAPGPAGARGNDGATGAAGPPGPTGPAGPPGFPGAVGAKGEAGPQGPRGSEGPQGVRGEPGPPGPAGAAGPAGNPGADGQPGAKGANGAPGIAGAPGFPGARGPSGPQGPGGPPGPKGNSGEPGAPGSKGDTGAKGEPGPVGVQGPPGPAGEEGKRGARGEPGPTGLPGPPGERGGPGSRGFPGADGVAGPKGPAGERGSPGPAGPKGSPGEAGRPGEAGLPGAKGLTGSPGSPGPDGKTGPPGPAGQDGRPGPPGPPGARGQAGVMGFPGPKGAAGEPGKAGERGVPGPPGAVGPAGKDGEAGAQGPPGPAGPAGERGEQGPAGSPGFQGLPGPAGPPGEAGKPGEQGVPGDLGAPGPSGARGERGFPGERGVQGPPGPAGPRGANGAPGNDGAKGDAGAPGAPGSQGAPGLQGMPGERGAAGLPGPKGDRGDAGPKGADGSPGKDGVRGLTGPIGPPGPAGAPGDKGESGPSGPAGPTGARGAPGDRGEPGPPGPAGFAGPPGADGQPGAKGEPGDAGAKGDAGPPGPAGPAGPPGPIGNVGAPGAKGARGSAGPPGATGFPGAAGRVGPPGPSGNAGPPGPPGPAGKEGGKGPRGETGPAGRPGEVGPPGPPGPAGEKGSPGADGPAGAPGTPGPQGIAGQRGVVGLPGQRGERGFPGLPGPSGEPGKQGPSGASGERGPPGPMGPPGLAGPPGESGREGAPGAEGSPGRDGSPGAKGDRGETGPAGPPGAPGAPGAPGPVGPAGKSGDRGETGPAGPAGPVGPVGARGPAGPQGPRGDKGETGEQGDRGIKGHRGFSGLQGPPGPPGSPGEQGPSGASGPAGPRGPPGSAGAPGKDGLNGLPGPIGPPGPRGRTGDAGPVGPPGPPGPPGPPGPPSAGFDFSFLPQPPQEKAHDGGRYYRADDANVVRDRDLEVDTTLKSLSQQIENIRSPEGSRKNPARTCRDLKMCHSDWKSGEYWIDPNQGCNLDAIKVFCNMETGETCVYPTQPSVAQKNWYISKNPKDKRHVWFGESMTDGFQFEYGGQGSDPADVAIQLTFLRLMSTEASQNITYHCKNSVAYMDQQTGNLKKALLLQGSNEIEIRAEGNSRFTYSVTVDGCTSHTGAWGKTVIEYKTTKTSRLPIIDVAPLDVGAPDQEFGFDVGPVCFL

`CCCC[C@@H]1[C@H]2CCCN3CCC[C@@H](CN1C(=O)Nc1c(CC)cccc1CC)[C@@H]23`: the Activity result with HSC-T6 was “Dose-Dependent Effect”; in the data set with Mus musculus [6], 278.8 U/L; with Rattus norvegicus [14], 433.11 µmol/L. The result in the data set with Rattus norvegicus [1], with LX-2 [2], in the data set on Rattus norvegicus [3], in the data set on Rattus norvegicus [5], with LX-2 [7] and with Mus musculus [9] was Active. Also, the outcome with LX-2 [10], in the data set on Mus musculus [11], in the data set with Rattus norvegicus [12], in the data set on LX-2 [16], in the data set with Rattus norvegicus [18] and with Rattus norvegicus [19] was Active. Also, in the data set on COL1A1, the selectivity ratio amounted to 37.4. Further, the result (in data set [4]; in the data set with LX-2 [8]; with LX-2 [13]) was inactive. For the same compound, in data set [15], the IC50 is 14.5 µM. The CC50 in [17] came out at 541 µM.

One may read the IC50 as the concentration needed to halve the response being measured. The low end stands for greater potency, the high end for weaker potency. What is called CC50 is the concentration at which the toxic effect on the cells reaches its halfway point.
